By EC50 is commonly meant the concentration at which the effect is half-maximal.

SMILES strings stand for the structures.

The target of the assay is hSTING(R232) (Homo sapiens, UniProt Q86WV6, H232R). Briefly: Luciferase reporter assay in HEK293T-hSTING-Luciferase cells, R232 (wild type) human STING. The assay is classed as cell-based. The note with it: 20 hr stimulation, read-out: R232 human activity (EC50 range). The source says: Stable Cell Line Generation • a) Stable STING expressing cells—Stable HEK293T STING-expressing cell lines were generated using plasmids purchased from Invivogen, CA, USA, that contain STING cDNA cloned into the pUNO-1 vector under hEF1-HTLV promoter and containing the Blasticidin selection cassette. The plasmids hSTING(R232), hSTING(H232), hSTING(HAQ) were directly procured from Invivogen while hSTING (AQ) and hSTING (Q) were derived from hSTING(HAQ) and hSTING (R232) plasmids respectively by using a PCR based site directed mutagenesis method. These vectors were individually transfected into HEK293T cells using Lipofectamine (Invitrogen) and transfected cells were selected under Blasticidin selection. These transfected cells were further subjected to clonal selection using the limiting dilution method to obtain clonally pure populations of HEK cells transfected with each of the above mentioned human STING variants. Only those clones were selected in which ligand independent activation of STING was minimal. • b) Stable Luciferase reporter gene expressing cells—Stable HEK293T Luciferase reporter gene expressing cell lines were generated using pCDNA4 plasmids under an IRF-inducible promoter. This promoter is comprised of five tandem interferon-stimulated response elements (ISRE) fused to an ISG54 minimal promoter. This vector was transfected into HEK293T cells using Lipofectamine (Invitrogen) and transfected cells were selected under Zeocin selection. These transfected cells were further subjected to clonal selection using the limiting dilution method to obtain clonally pure populations of HEK cells transfected the Luciferase reporter construct. Only those clones were selected in which ligand independent induction of luciferase was minimal.
Sequence of hSTING(R232) (Q86WV6 whole entry H232R): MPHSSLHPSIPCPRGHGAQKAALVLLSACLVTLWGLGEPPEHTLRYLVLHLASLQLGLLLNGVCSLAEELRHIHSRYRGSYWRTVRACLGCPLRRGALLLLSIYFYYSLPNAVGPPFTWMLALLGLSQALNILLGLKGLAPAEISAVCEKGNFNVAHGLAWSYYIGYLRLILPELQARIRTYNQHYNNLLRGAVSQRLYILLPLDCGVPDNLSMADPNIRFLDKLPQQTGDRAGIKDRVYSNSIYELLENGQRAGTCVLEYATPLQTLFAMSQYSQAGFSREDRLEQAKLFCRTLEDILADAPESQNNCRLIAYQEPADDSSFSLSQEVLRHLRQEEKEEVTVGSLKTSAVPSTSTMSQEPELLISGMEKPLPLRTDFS
5×10^5 clonally selected HEK293T-hSTING-Luciferase cells were seeded in 384-well plates in growth medium and stimulated with novel compounds. After 20 hr of stimulation supernatant were removed and secretary reporter gene activity were measured using the Quanti-Luc detection system (Invivogen) on a Spectramax i3X luminometer.
In the tables below, EC50 value ranges for exemplary compounds are given.
All compounds were first tested in a primary screen to obtain a ‘fold-induction’ over baseline levels of protein activity.
Background: In a reporter assay the amount or activity of a reporter protein is the signal.
For the compound `CC1c2ccc(C(=O)NCc3c(F)cc(F)cc3F)cc2N(Cc2c(F)cccc2Cl)C(=O)N1C` (racemic) [Example 74, 1-(2-chloro-6-fluorobenzyl)-3,4-dimethyl-2-oxo-N-(2,4,6-trifluorobenzyl)-1,2,3,4-tetrahydroquinazoline-7-carboxamide], the EC50 was below 1000 nM. As for `C[C@@H]1c2ccc(C(=O)NCc3c(F)cc(F)cc3F)cc2N(Cc2c(F)cccc2Cl)C(=O)N1C` (single isomer, unassigned) [Example 75], the EC50 was in the range of 1000 to 10000 nM. The value for `CN1Cc2ccc(C(=O)NCc3c(F)cc(F)cc3F)cc2N(Cc2cc(F)cc(F)c2)C1=O` [Example 1, 1-(3,5-difluorobenzyl)-3-methyl-2-oxo-N-(2,4,6-trifluorobenzyl)-1,2,3,4-tetrahydroquinazoline-7-carboxamide] was below 1000 nM; that for `Cc1ccc(CNC(=O)c2ccc3c(c2)N(Cc2cc(F)cc(F)c2)C(=O)N(C)C3)o1` [Example 2, 1-(3,5-difluorobenzyl)-3-methyl-N-((5-methylfuran-2-yl)methyl)-2-oxo-1,2,3,4-tetrahydroquinazoline-7-carboxamide] was above 10000 nM; that for `O=C(NCc1c(F)cc(F)cc1F)c1ccc2c(c1)N(Cc1cc(F)cc(F)c1)C(=O)N(C1CC1)C2` [Example 3, 3-cyclopropyl-1-(3.5-difluorobenzyl)-2-oxo-N-(2,4,6-trifluorobenzyl)-1,2,3,4-tetrahydroquinazoline-7-carboxamide] was above 10000 nM. Consider `CN1Cc2ccc(C(=O)NCc3ccc(F)cc3F)cc2N(Cc2cc(F)cc(F)c2)C1=O` [Example 4, N-(2,4-difluorobenzyl)-1-(3,5-difluorobenzyl)-3-methyl-2-oxo-1,2,3,4-tetrahydroquinazoline-7-carboxamide], for which the EC50 is below 1000 nM. For the compound `CN1Cc2ccc(C(=O)NCc3c(F)cc(F)cc3F)cc2N(Cc2c(F)cccc2Cl)C1=O` [Example 5, 1-(2-chloro-6-fluorobenzyl)-3-methyl-2-oxo-N-(2,4,6-trifluorobenzyl)-1,2,3,4-tetrahydroquinazoline-7-carboxamide], the EC50 is below 1000 nM. With `CN1Cc2ccc(C(=O)NCc3c(F)cc(F)cc3F)cc2N(Cc2ccc(F)cc2)C1=O` [Example 6, 1-(4-fluorobenzyl)-3-methyl-2-oxo-N-(2,4,6-trifluorobenzyl)-1,2,3,4-tetrahydroquinazoline-7-carboxamide], the concentration for a half-maximal effect (EC50) was below 1000 nM. The result for `CCN1Cc2ccc(C(=O)NCc3c(F)cc(F)cc3F)cc2N(Cc2cc(F)cc(F)c2)C1=O` [Example 7, 1-(3,5-difluorobenzyl)-3-ethyl-2-oxo-N-(2,4,6-trifluorobenzyl)-1,2,3,4-tetrahydroquinazoline-7-carboxamide] reads 1000 to 10000 nM; that for `CN1Cc2ccc(C(=O)NCc3c(F)cc(F)cc3F)cc2N(Cc2ccc(F)cc2F)C1=O` [Example 8, 1-(2,4-difluorobenzyl)-3-methyl-2-oxo-N-(2,4,6-trifluorobenzyl)-1,2,3,4-tetrahydroquinazoline-7-carboxamide], below 1000 nM.

Take `Cc1cccc(F)c1CN1C(=O)N(C)Cc2ccc(C(=O)NCc3c(F)cc(F)cc3F)cc21` [Example 9, 1-(2-fluoro-6-methylbenzyl)-3-methyl-2-oxo-N-(2,4,6-trifluorobenzyl)-1,2,3,4-tetrahydroquinazoline-7-carboxamide]: the EC50 was below 1000 nM. Take `COc1cccc(F)c1CN1C(=O)N(C)Cc2ccc(C(=O)NCc3c(F)cc(F)cc3F)cc21` [Example 10, 1-(2-fluoro-6-methoxybenzyl)-3-methyl-2-oxo-N-(2,4,6-trifluorobenzyl)-1,2,3,4-tetrahydroquinazoline-7-carboxamide]: the 50% effective concentration (EC50) was below 1000 nM. The result for `CN1Cc2ccc(C(=O)NCc3c(F)cc(F)cc3F)cc2N(Cc2c(F)cccc2Br)C1=O` [Example 11, 1-(2-bromo-6-fluorobenzyl)-3-methyl-2-oxo-N-(2,4,6-trifluorobenzyl)-1,2,3,4-tetrahydroquinazoline-7-carboxamide] reads below 1000 nM.

The values are drawn from patent publication US11571423B2, “Small molecule modulators of human sting” (Curadev Pharma Limited, priority 2017, dated 2023).
